Measurements taken from PubChem BioAssay AID256 (DTP/NCI, 2004).
Values joined by “and” are separate entries in the source; they are usually repeats but may differ in a detail not shown here. Equal entries are not always repeated. Toxic doses and inconclusive results are not listed. The calls were made as follows: active = survival T/C of 150% or more; inactive = T/C below 125% in these data.

System: CD2F1 mice, L1210 leukemia ip, survival T/C
Assay: NCI In Vivo Anticancer Drug Screen. Data for tumor model L1210 Leukemia (intraperitoneal) in CD2F1 (CDF1) mice
Settings: higher = longer survival
Summary of the method: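 Vehicle-treated tumor-bearing mice served as controls (C) for compound-treated mice (T). Reported figure is T divided by C.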

[1] = endpoint: mean survival time, dose: 100.0 mg/kg/injection, schedule: Q04DX003 (ip), vehicle: saline with Tween-80
[2] = endpoint: mean survival time, dose: 200.0 mg/kg/injection, schedule: Q04DX003 (ip), vehicle: saline with Tween-80
[3] = endpoint: mean survival time, dose: 400.0 mg/kg/injection, schedule: Q04DX003 (ip), vehicle: saline with Tween-80
[4] = endpoint: mean survival time, dose: 50.0 mg/kg/injection, schedule: Q01DX009 (ip), vehicle: saline with Tween-80
[5] = endpoint: mean survival time, dose: 100.0 mg/kg/injection, schedule: Q01DX009 (ip), vehicle: saline with Tween-80
[6] = endpoint: mean survival time, dose: 200.0 mg/kg/injection, schedule: Q01DX009 (ip), vehicle: saline with Tween-80
[7] = endpoint: mean survival time, dose: 400.0 mg/kg/injection, schedule: Q01DX009 (ip), vehicle: saline with Tween-80

Measured: T/C

CCN1/C(=C\c2ccc3cc(C)ccc3[n+]2CC)[Se]c2ccccc21
inactive: endpoint: mean survival time, dose: 1.25 mg/kg/injection, schedule: Q01DX001 (ip), vehicle: other 105 % of control | endpoint: mean survival time, dose: 2.5 mg/kg/injection, schedule: Q01DX001 (ip), vehicle: other 101 % of control | endpoint: mean survival time, dose: 5.0 mg/kg/injection, schedule: Q01DX001 (ip), vehicle: other 106 % of control

COC1=N/C=C/C=C\C/C=C/C1
inactive: endpoint: median survival time, dose: 50.0 mg/kg/injection, schedule: Q04DX002 (ip), vehicle: saline with Tween-80 111 % of control | endpoint: median survival time, dose: 100.0 mg/kg/injection, schedule: Q04DX002 (ip), vehicle: saline with Tween-80 88 % of control | endpoint: median survival time, dose: 200.0 mg/kg/injection, schedule: Q04DX002 (ip), vehicle: saline with Tween-80 100 % of control | endpoint: median survival time, dose: 400.0 mg/kg/injection, schedule: Q04DX002 (ip), vehicle: saline with Tween-80 88 % of control

O=C(CCC(NC(=O)OCc1ccccc1)C(=O)O)OCc1ccccc1 (centres undefined)
inactive: [1] 100 % of control | [2] 101 % of control | [3] 94 % of control

C[CH2][Ge]([CH2]C)[CH2]C.C[CH2][Ge]([CH2]C)[CH2]C.C[CH2][Ge]([CH2]C)[O][Ge]([CH2]C)[CH2]C
inactive: endpoint: mean survival time, dose: 6.25 mg/kg/injection, schedule: Q01DX009 (ip), vehicle: saline with Tween-80 97 % of control and 106 % of control | endpoint: mean survival time, dose: 12.5 mg/kg/injection, schedule: Q01DX009 (ip), vehicle: saline with Tween-80 96 % of control and 104 % of control | endpoint: mean survival time, dose: 25.0 mg/kg/injection, schedule: Q01DX009 (ip), vehicle: saline with Tween-80 97 % of control and 112 % of control | [4] 104 % of control and 112 % of control | [5] 109 % of control

CC1(C)C=CC(C)(C)c2c(NS(=O)(=O)c3ccccc3)ccc(NS(=O)(=O)c3ccccc3)c21
inactive: [1] 98 % of control | [3] 96 % of control

CC(=O)C1=C(C)NC(C)=C(C(C)=O)C1c1ccccc1
inactive: [5] 103 % of control | [6] 107 % of control | [7] 107 % of control

OCC1OC(n2ncc3c2N=CN2CCN=C32)C(O)C1O (centres undefined)
inactive: endpoint: mean survival time, dose: 12.5 mg/kg/injection, schedule: Q01DX009 (ip), vehicle: water 95 % of control | endpoint: mean survival time, dose: 25.0 mg/kg/injection, schedule: Q01DX009 (ip), vehicle: water 98 % of control | endpoint: mean survival time, dose: 50.0 mg/kg/injection, schedule: Q01DX009 (ip), vehicle: water 102 % of control | endpoint: mean survival time, dose: 100.0 mg/kg/injection, schedule: Q01DX009 (ip), vehicle: water 95 % of control | endpoint: mean survival time, dose: 200.0 mg/kg/injection, schedule: Q01DX009 (ip), vehicle: water 95 % of control

[Cl][Pt+2][Cl].[NH-]c1ccc([N+](=O)[O-])cc1[NH-]
inactive: endpoint: mean survival time, dose: 2.5 mg/kg/injection, schedule: Q01DX009 (ip), vehicle: saline with Tween-80 103 % of control | endpoint: mean survival time, dose: 5.0 mg/kg/injection, schedule: Q01DX009 (ip), vehicle: saline with Tween-80 102 % of control | endpoint: mean survival time, dose: 10.0 mg/kg/injection, schedule: Q01DX009 (ip), vehicle: saline with Tween-80 103 % of control | endpoint: mean survival time, dose: 20.0 mg/kg/injection, schedule: Q01DX009 (ip), vehicle: saline with Tween-80 105 % of control and 107 % of control | endpoint: mean survival time, dose: 40.0 mg/kg/injection, schedule: Q01DX009 (ip), vehicle: saline with Tween-80 106 % of control and 111 % of control | endpoint: mean survival time, dose: 80.0 mg/kg/injection, schedule: Q01DX009 (ip), vehicle: saline with Tween-80 96 % of control

C=CC1CC2C=CC1C2 (centres undefined) (tested in a mixture with another compound)
inactive: endpoint: mean survival time, dose: 80.5 mg/kg/injection, schedule: Q01DX009 (ip), vehicle: saline with Tween-80 106 % of control | endpoint: mean survival time, dose: 161.0 mg/kg/injection, schedule: Q01DX009 (ip), vehicle: saline with Tween-80 90 % of control

Nc1ccn(C2OC(C(OC3OC(CO)C(O)C(N)C3O)C(O)C(O)C(O)C(O)CO)C(N)C(O)C2O)c(=O)n1 (centres undefined)
inactive: endpoint: mean survival time, dose: 0.1 mg/kg/injection, schedule: Q01DX005 (ip), vehicle: saline 104 % of control | endpoint: mean survival time, dose: 0.2 mg/kg/injection, schedule: Q01DX005 (ip), vehicle: saline 102 % of control | endpoint: mean survival time, dose: 0.4 mg/kg/injection, schedule: Q01DX005 (ip), vehicle: saline 101 % of control

O=C1Nc2ccccc2/C1=C\c1ccccc1O
inactive: endpoint: mean survival time, dose: 50.0 mg/kg/injection, schedule: Q01DX009 (ip), vehicle: Klucel (hydroxypropylcellulose) (HPC) 93 % of control | endpoint: mean survival time, dose: 100.0 mg/kg/injection, schedule: Q01DX009 (ip), vehicle: Klucel (hydroxypropylcellulose) (HPC) 87 % of control | endpoint: mean survival time, dose: 200.0 mg/kg/injection, schedule: Q01DX009 (ip), vehicle: Klucel (hydroxypropylcellulose) (HPC) 96 % of control | endpoint: mean survival time, dose: 400.0 mg/kg/injection, schedule: Q01DX009 (ip), vehicle: Klucel (hydroxypropylcellulose) (HPC) 96 % of control

CC(N)(CC(=O)O)C(=O)O (centres undefined)
inactive: endpoint: mean survival time, dose: 100.0 mg/kg/injection, schedule: Q01DX009 (ip), vehicle: saline sonified 97 % of control | [1] 92 % of control | endpoint: mean survival time, dose: 200.0 mg/kg/injection, schedule: Q01DX009 (ip), vehicle: saline sonified 95 % of control | [2] 97 % of control | endpoint: mean survival time, dose: 400.0 mg/kg/injection, schedule: Q01DX009 (ip), vehicle: saline sonified 96 % of control | [3] 91 % of control

CSc1c(Cl)cc(Cl)cc1C(=O)O
inactive: [1] 94 % of control | [2] 91 % of control | [3] 96 % of control

O=C(c1ccc(Cl)cc1)c1no[n+]([O-])c1C(=O)c1ccc(Cl)cc1
inactive: [5] 94 % of control | [1] 107 % of control | [6] 100 % of control | [2] 95 % of control | [7] 94 % of control | [3] 95 % of control

COc1ccc(CCC(=O)O)cc1OC
inactive: [5] 96 % of control | [1] 98 % of control | [6] 97 % of control | [2] 96 % of control | [7] 92 % of control | [3] 104 % of control

Nn1nc2ccccc2n1
inactive: [1] 111 % of control | [2] 117 % of control | [3] 95 % of control

NN1CCOC1=O
inactive: endpoint: mean survival time, dose: 100.0 mg/kg/injection, schedule: Q01DX001 (ip), vehicle: saline with Tween-80 97 % of control | endpoint: mean survival time, dose: 200.0 mg/kg/injection, schedule: Q01DX001 (ip), vehicle: saline with Tween-80 100 % of control

CC(=O)OC1COC(n2cnc3c(=S)nc[nH]c32)C(OC(C)=O)C1OC(C)=O (centres undefined)
inactive: endpoint: mean survival time, dose: 100.0 mg/kg/injection, schedule: Q01DX001 (ip), vehicle: saline 97 % of control | endpoint: mean survival time, dose: 200.0 mg/kg/injection, schedule: Q01DX001 (ip), vehicle: saline 102 % of control | endpoint: mean survival time, dose: 400.0 mg/kg/injection, schedule: Q01DX001 (ip), vehicle: saline 100 % of control

O=[N+]([O-])c1ccc(SSc2ccc([N+](=O)[O-])cn2)nc1
inactive: [4] 93 % of control | [5] 89 % of control | [1] 100 % of control | [2] 100 % of control

Cc1cc(=S)n(C)c2ccccc12
inactive: [5] 94 % of control | [1] 93 % of control | [6] 93 % of control | [2] 96 % of control | [7] 98 % of control | [3] 88 % of control

COC(=O)CC(OC)OC
inactive: endpoint: mean survival time, dose: 100.0 mg/kg/injection, schedule: Q04DX003 (ip), vehicle: saline 103 % of control | endpoint: mean survival time, dose: 200.0 mg/kg/injection, schedule: Q04DX003 (ip), vehicle: saline 94 % of control | endpoint: mean survival time, dose: 400.0 mg/kg/injection, schedule: Q04DX003 (ip), vehicle: saline 92 % of control

O=C(CNC(=O)Nc1ccc(F)cc1)NNC(=O)Nc1ccc(Cl)c([N+](=O)[O-])c1
inactive: [6] 92 % of control | [7] 88 % of control

CC(C)C[CH2][Pb]([Cl])([CH2]CC(C)C)[CH2]CC(C)C
inactive: endpoint: mean survival time, dose: 0.06 mg/kg/injection, schedule: Q01DX009 (ip), vehicle: saline 97 % of control | endpoint: mean survival time, dose: 0.12 mg/kg/injection, schedule: Q01DX009 (ip), vehicle: saline 97 % of control | endpoint: mean survival time, dose: 0.25 mg/kg/injection, schedule: Q01DX009 (ip), vehicle: saline 97 % of control | endpoint: mean survival time, dose: 0.5 mg/kg/injection, schedule: Q01DX009 (ip), vehicle: saline 100 % of control | endpoint: mean survival time, dose: 1.0 mg/kg/injection, schedule: Q01DX009 (ip), vehicle: saline 100 % of control
